Values quoted from earlier work as cited in patent US10285987B2, “Device and kit for dosing and dispensing non-liquid medicine” (AmpliPharm Pharmaceuticals, LLC, priority 2017, dated 2019).

Conditions: skin contact

Cn1nnc2c(C(N)=O)ncn2c1=O [temozolomide, 3,4-dihydro-3-methyl-4-oxoimidazo [5,1-d]-as-tetrazine-8-carboxamide]
classification for skin corrosion/irritation and eye irritation: category 2
